From patent US5594024A, “Centrally actig substituted phenylazacycloalkanes” (priority 1995, dated 1997)
Entries after “also recorded” stand apart in the source; their conditions may differ.

Columns and labels:
[1] = biological target: T1, D2 receptors (Rattus norvegicus, UniProt P61169); test: D2 antagonist binding ([3H]-spiperone), rat striatum
T1 construct: Preparation of rat striatal membranes for (3H)-spiperone; from tissue; host or cells: rat striatum (striatal membranes)
Experimental: D2 antagonist binding. Preparation of rat striatal membranes for (3H)-spiperone (specific activity 21-24 Ci/mmol) binding was carried out in a similar manner as described for D1-binding, Hyttel et al., J. Neural. Transm., 68, 171 (1987).
IC50 values were calculated by semi-log plot and linear regression analysis.

[2] = test system: non-pretreated rats; test: Locomotor activity and gross behavior in non-habituated (non-pretreated) rats; conditions: for Gross Behavioral Observations: non-pretreated rats
[3] = test system: DA receptor; test: DOPA accumulation (DA synthesis rate) in non-pretreated rats after NSD 1015; conditions: for duration of the increase in brain DOPA accumulation: 50 μmol/kg
Experimental: injected with NSD 1015 (100 mg/kg, i.p.) and then killed 30 min later.
In-vivo determination of rat brain monoamine metabolites and tyrosine and tryptophan hydroxylation (biochemically monitored DA and 5-HT receptor agonist or antagonist activity).
The compounds under evaluation were tested biochemically for central DA and 5-HT receptor (pre- and/or postsynaptic) stimulating and/or blocking activity. The concept of this biochemical screening method is that a DA or 5-HT receptor agonist will stimulate the receptor and through regulatory negative feed-back systems induce a decline in tyrosine or tryptophan hydroxylating activity, respectively, and a subsequent reduction in the synthesis rate of DA and 5-HT in the presynaptic neuron. […] The biochemical experiments and the determinations of Dopa and 5-HTP by means of HPLC with electrochemical detection were performed. The antagonistic effects were seen as increases in the synthesis rate (n=4), as a result of the positive feed-back upregulation of synthesis. The effects on Dopa and 5-HTP accumulation are expressed as % of controls, which were: DOPA limbic system=447±23 ng/g and DOPA striatum=1045±47ng/g, 5-HTP limbic region 241±2 ng/g (Table 2).
Animals used in the biochemical and motor activity experiments were male rats of the Sprague-Dawley strain (ALAB, Sollentuna, Sweden), weighing 200-300 g. The rats were kept 5 per cage with free access to water and food (except for the starved animals for the experiments with per oral administration, who were only allowed water the last 18 hours before testing), at least one week from arrival until used in the experiments.
All substances to be tested were dissolved in saline immediately before use, occasionally with the addition of a few drops of glacial acetic acid and/or moderate heating in order to obtain complete dissolution. Injection volumes were 5 mL/kg.
Analysis of variance (ANOVA) followed by Fischer's test was used for the statistical calculations. P values less than 0.05 were regarded statistically significant.
DOPA accumulation (DA synthesis rate) in non-pretreated rats (Table 2). After the locomotor activity session (see Table 2, above) the rats were injected with the decarboxylase inhibitor NSD 1015 (100 mg/kg, sc) and killed 30 minutes later. The DOPA accumulation in the DA -rich limbic and striatal and the NE-rich cortical (mainly hemispheres) brain areas were expressed as % of saline treated controls.
DOPA accumulation, time course after s.c. and p.o. administration (Table 2). […] NSD 1015 (100 mg/kg, sc) was injected 30 minutes before death. The data are expressed as % of saline treated controls.

[4] = test system: DA receptor; test: DA metabolism (DOPAC, HVA levels) in habituated rats; type: in vivo, rat (male Sprague-Dawley); conditions: Rattus norvegicus, 1 h, read-out: DOPAC limbic
How it was run: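 Rats habituated to motility meters 60 min, no NSD given; killed one hour after drug administration (injection volume 5 mL/kg). Striatal and limbic DOPAC, HVA and 5-HIAA measured by HPLC-EC, expressed as % of controls (means ±SEM).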

[5] = test system: central dopamine receptors; test: Locomotor activity and DA synthesis in reserpinized rats; type: in vivo, rat; conditions: reserpinized rats
[6] = biological target: T2, 5-HT1A (Rattus norvegicus, UniProt P19327); test: 5-HT1A radioligand binding ([3H]-8-OH-DPAT); design: species or system rat (male Sprague-Dawley)
T2 construct: the whole brain with the exception of the brainstem and cerebellum was rapidly removed; from tissue
T2 sequence (P19327 1-422): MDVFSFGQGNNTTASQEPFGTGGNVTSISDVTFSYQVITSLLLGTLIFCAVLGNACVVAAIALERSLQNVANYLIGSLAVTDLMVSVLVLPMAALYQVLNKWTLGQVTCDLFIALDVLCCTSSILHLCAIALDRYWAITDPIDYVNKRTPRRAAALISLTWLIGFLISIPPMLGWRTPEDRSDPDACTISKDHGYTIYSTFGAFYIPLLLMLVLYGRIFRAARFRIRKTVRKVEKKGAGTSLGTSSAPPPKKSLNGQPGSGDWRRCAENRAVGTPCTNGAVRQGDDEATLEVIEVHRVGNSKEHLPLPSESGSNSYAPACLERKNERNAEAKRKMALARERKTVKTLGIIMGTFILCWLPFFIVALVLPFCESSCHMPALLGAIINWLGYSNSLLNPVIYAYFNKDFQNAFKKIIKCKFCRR
How it was run: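 Rat forebrain membranes (whole brain minus brainstem and cerebellum) in 50 mM Tris pH 8.0 with NaCl, CaCl2, MgCl2 and 10 μM pargyline; 1 nM [3H]-8-OH-DPAT, 15 min at 37° C., filtration. Nonspecific binding defined with 10 μM 5-HT; IC50 by semi-log plot and linear regression.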

[7] = test system: 5-HT receptor; test: 5-HT metabolism (5-HIAA levels) in habituated rats; type: in vivo, rat (male Sprague-Dawley); conditions: Table 3
Experimental: Footnotes Table 3. The rats were habituated to the motility meters 60 min
SEM. The rats were immediately killed after the activity session, striata
and limbic levels of DOPAC and 5HIAA were measured by means of HPLCEC. *p
In the experiments with habituated rats no NSD was administered and the animals were killed one hour after drug administration. […] The levels were expressed as % of controls (DOPAC and 5-HIAA see Table 3). The in vivo brain microdialysis experiments were performed in conscious rats as described by Waters et al., Eur. J. Pharm., 187, 425-34 (1990).
Injection volumes were 5 mL/kg. […]

T1 sequence (P61169 whole entry): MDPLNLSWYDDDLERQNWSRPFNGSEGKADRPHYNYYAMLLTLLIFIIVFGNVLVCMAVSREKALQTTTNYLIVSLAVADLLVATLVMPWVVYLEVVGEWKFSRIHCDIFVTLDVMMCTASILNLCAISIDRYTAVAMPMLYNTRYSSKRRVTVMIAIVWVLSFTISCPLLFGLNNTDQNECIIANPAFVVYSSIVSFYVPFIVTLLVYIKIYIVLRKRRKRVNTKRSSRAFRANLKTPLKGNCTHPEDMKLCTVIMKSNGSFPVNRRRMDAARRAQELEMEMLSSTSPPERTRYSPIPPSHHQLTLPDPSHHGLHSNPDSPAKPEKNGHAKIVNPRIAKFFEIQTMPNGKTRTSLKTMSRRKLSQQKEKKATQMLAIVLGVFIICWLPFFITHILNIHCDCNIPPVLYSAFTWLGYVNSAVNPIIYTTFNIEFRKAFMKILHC

## CCCN1CCC[C@@H](c2cccc(C#N)c2)C1 [S-(-)-34, S-(-)-3-(3-Cyanophenyl-N-n-propyl)piperidine]
[1]; (3H)-Spiperone binding
  affinity for D2 receptors (in words): weak, affinity to the dopamine D2 receptor site
[1]; read-out: in vitro binding IC50, D2 -spip, [3H]-spiperone, rat striatum
  IC50: 3.5 µM
[2]; 25-200 μmol/kg, sc, dose-dependent monophasic, non-habituated rats
  increase in motor activity, maximal effect: +60%
[2]; 50 sc
  Gross Behavioral Observations: Activation
[2]; 100 sc
  Gross Behavioral Observations: Activation
[2]; 200 sc
  Gross Behavioral Observations: No change
[3]; po
  duration of the increase in brain DOPA accumulation: 1.5 to 2.5 h
[3]; s.c.
  duration of the increase in brain DOPA accumulation: 2.5 to 4.5 h
  cortical DOPA formation (in words): slightly, but statistically significantly increased; also recorded: slight increase in cortical DOPA accumulation
[3]; 3.1-200 μmol/kg, s.c.
  DOPA accumulation in limbic and striatal brain regions (in words): elevated in the limbic (limb.) and striatal (stri) brain regions with a maximal response equal to that observed for classical neuroleptics such as haloperidol
[3]; 50 sc
  DOPA acc Cortex: 155 ± 9 % of saline controls
  DOPA acc Stratium: 285 ± 3 % of saline controls
[3]; 100 sc
  DOPA acc Cortex: 158 ± 8 % of saline controls
  DOPA acc Stratium: 268 ± 16 % of saline controls
[3]; 200 sc
  DOPA acc Cortex: 148 ± 16 % of saline controls
  DOPA acc Stratium: 294 ± 26 % of saline controls
[3]; from DOPA accumulation in the striatum after sc and po administration
  estimated availability: 50%
[4]; po
  response vs control in vivo at 25 µmol/kg: 138 ± 13%
[4]; sc
  response vs control in vivo at 100 µmol/kg: 226 ± 11%
[5]
  DA synthesis rate / DOPA accumulation in reserpinized rats (in words): failed to affect the DOPA accumulation in reserpinized
[6]
  affinity for the 5-HT1A receptors in vitro (in words): very low affinity for the 5-HT1A receptors
[6]; [3H]-8-OH-DPAT, rat cortex, read-out: in vitro binding IC50, 5HT1A
  IC50: 75 µM
[7]
  brain 5-HIAA levels (in words): no statistical significant effects; also recorded: No effects on the brain levels of 5-HIAA; also recorded: failed to affect brain levels of 5-HIAA
